Reference: patent US12286435B2, “Compound having benzo seven-membered ring structure, preparation method therefor, and use thereof” (BIONNA (BEIJING) MEDICAL TECHNOLOGY CO., LTD., priority 2019, dated 2025)
Counter-ions that a name gives are not always drawn.

Experiments:
[1] = biological target: BRD4 BD1 protein (Homo sapiens (Human), UniProt O60885); assay: Fluorescence polarization binding affinity (Ki) with BRD4 BD1 protein; details: fluorescence polarization; Ki calculated from IC50
[2] = biological target: BRD4 BD2 protein (Homo sapiens (Human), UniProt O60885); assay: Fluorescence polarization binding affinity (Ki) with BRD4 BD2 protein; details: fluorescence polarization; Ki calculated from IC50

Row | Compound | Ki [1] [nM] | Ki [2] [nM]
1 | Cc1nnn2c1-c1ccc(C3CCNCC3)cc1C(Nc1ccc(Cl)cc1)CC2 (stereo not shown) [BF169, N-(4-chlorophenyl)-1-methyl-9-(piperidin-4-yl)-6,7-dihydro-5H-benzo[c][1,2,3]triazolo[1,5-a]azepin-7-amine hydrochloride] | > 20000 | 661
2 | Cc1nnn2c1-c1ccc(C3CCN(C)CC3)cc1C(Nc1ccc(Cl)cc1)CC2 (stereo not shown) [BF178, N-(4-chlorophenyl)-1-methyl-9-(1-methylpiperidin-4-yl)-6,7-dihydro-5H-benzo[c][1,2,3]triazolo[1,5-a]azepin-7-amine] | > 20000 | > 20000
3 | Cc1nnn2c1-c1ccc(C3=CCNCC3)cc1C(Nc1cc(F)cc(Cl)c1)CC2 (stereo not shown) [BH06, N-(3-chloro-5-fluorophenyl)-1-methyl-9-(1,2,3,6-tetrahydropyridin-4-yl)-6,7-dihydro-5H-benzo[c][1,2,3]triazolo[1,5-a]azepin-7-amine 2,2,2-trifluoroacetate] | 596 | 35.7
4 | COc1cccc(NC2CCn3nnc(C)c3-c3ccc(C4=CCN(C)CC4)cc32)c1 (stereo not shown) [BH23, N-(3-methoxyphenyl)-1-methyl-9-(1-methyl-1,2,3,6-tetrahydropyridin-4-yl)-6,7-dihydro-5H-benzo[c][1,2,3]triazolo[1,5-a]azepin-7-amine 2,2,2-trifluoroacetate] | 751 | 75.3
5 | COc1cccc(NC2CCn3nnc(C)c3-c3ccc(C4=CCN(C(C)=O)CC4)cc32)c1 (stereo not shown) [BH27, 1-(4-(7-((3-methoxyphenyl)amino)-1-methyl-6,7-dihydro-5H-benzo[c][1,2,3]triazolo[1,5-a]azepin-9-yl)-3,6-dihydropyridin-1(2H)-yl)ethan-1-one] | 70.1 | 2.95
6 | Cc1nnn2c1-c1ccc(C3=CCN(C)CC3)cc1C(Oc1cccc(Cl)c1)CC2 (stereo not shown) [BH43, 7-(3-chlorophenoxy)-1-methyl-9-(1-methyl-1,2,3,6-tetrahydropyridin-4-yl)-6,7-dihydro-5H-benzo[c][1,2,3]triazolo[1,5-a]azepine 2,2,2-trifluoroacetate] | > 100000 | 316
7 | Cc1nnn2c1-c1ccc(-c3cnn(C)c3)cc1C(NC1CCCCC1)CC2 (stereo not shown) [BH46, N-cyclohexyl-1-methyl-9-(1-methyl-1H-pyrazol-4-yl)-6,7-dihydro-5H-benzo[c][1,2,3]triazolo[1,5-a]azepin-7-amine 2,2,2-trifluoroacetate] | 689 | 907
8 | CC(=O)N1CC=C(c2ccc3c(c2)C(Oc2cccc(Cl)c2)CCn2nnc(C)c2-3)CC1 (stereo not shown) [BH81, 1-(4-(7-(3-chlorophenoxy)-1-methyl-6,7-dihydro-5H-benzo[c][1,2,3]triazolo[1,5-a]azepin-9-yl)-3,6-dihydropyridin-1(2H)-yl)ethan-1-one] | 869 | 31.1
9 | CCC(=O)N1CC=C(c2ccc3c(c2)C(Nc2cccc(Cl)c2)CCn2nnc(C)c2-3)CC1 (stereo not shown) [BH86, 1-(4-(7-((3-chlorophenyl)amino)-1-methyl-6,7-dihydro-5H-benzo[c][1,2,3]triazolo[1,5-a]azepin-9-yl)-3,6-dihydropyridin-1(2H)-yl)propan-1-one] | 9.51 | 6.43
10 | CCC(C)N1CC=C(c2ccc3c(c2)C(Nc2cccc(Cl)c2)CCn2nnc(C)c2-3)CC1 (stereo not shown) [BH87, 9-(1-(sec-butyl)-1,2,3,6-tetrahydropyridin-4-yl)-N-(3-chlorophenyl)-1-methyl-6,7-dihydro-5H-benzo[c][1,2,3]triazolo[1,5-a]azepin-7-amine 2,2,2-trifluoroacetate] | 1100 | 44.5
11 | Cc1nnn2c1-c1ccc(C3=CCN(C4CCCC4)CC3)cc1C(Nc1cccc(Cl)c1)CC2 (stereo not shown) [BH107, N-(3-chlorophenyl)-9-(1-cyclopentyl-1,2,3,6-tetrahydropyridin-4-yl)-1-methyl-6,7-dihydro-5H-benzo[c][1,2,3]triazolo[1,5-a]azepin-7-amine 2,2,2-trifluoroacetate] | 1740 | 17.6
